Laboratory results from patent US12304890B2, “R-type pyridyloxycarboxylic acid, salt and ester derivative thereof, and preparation method therefor, and herbicidal composition and application thereof” (Qingdao Kingagroot Chemical Compound Co., Ltd., priority 2018, dated 2025).

Tests used:
Type in all cases: in vivo
Digitaria sanguinalis = test: Post-emergence test experiment, Digitaria sanguinalis; settings: 1000 g a.i./ha, 3 weeks in greenhouse, fresh weight inhibition
Protocol: (§1) The above described growth inhibition rate is fresh weight inhibition rate.
(§2) Post-emergence test experiment: Monocotyledonous and dicotyledonous weed seeds and main crop seeds (i. e. wheat, corn, rice, soybean, cotton, oilseed, millet and sorghum.) were put into a plastic pot loaded with soil. Then covered with 0.5-2 cm soil, the seeds were allowed to grow in good greenhouse environment. The test plants were treated at 2-3 leaf stage 2 weeks after sowing. The test compounds of the invention were dissolved with acetone respectively, then added with tween-80, and using 1.5 liters per hectare of an emulsible concentrate of methyl oleate as a synergist, and diluted by certain amount of water to certain concentration. The solution was sprayed to the plants with a sprayer. Then the plants were cultured for 3 weeks in the greenhouse, and the experiment result of weed controlling effect was listed in tables 4-5.

[1] = system: Monocotyledonous and dicotyledonous weed seeds and main crop seeds; test: Post-emergence test experiment, other weeds and crops (Table 4, 1000 g a.i./ha); settings: 3 weeks in greenhouse, fresh weight inhibition
Summary of the method: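 Weed and crop seeds (wheat, corn, rice, soybean, cotton, oilseed, millet, sorghum) sown in soil pots in a greenhouse and sprayed at 2-3 leaf stage, 2 weeks after sowing. Compound in acetone/tween-80 with methyl oleate concentrate (1.5 L/ha) as synergist. Effect recorded as fresh-weight growth inhibition rate.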

Echinochloa crusgalli = test: Post-emergence test experiment, Echinochloa crusgalli; settings: 1000 g a.i./ha, 3 weeks in greenhouse, fresh weight inhibition
Protocol: as §1, §2

For `C[C@@H](Oc1nc(F)c(Cl)c(N)c1Cl)C(=O)OCC(C)(C)C` [Compound 2-91], the “Activity level (growth inhibition rate), Digitaria sanguinalis” value (Digitaria sanguinalis) was 5 (Level 5: the growth inhibition rate is greater than 85%), the “Activity level (growth inhibition rate), Abutilon theophrasti Medic.” value [1] was 5 (Level 5: the growth inhibition rate is greater than 85%) and the “Activity level (growth inhibition rate), Galium aparine” value [1] was 5 (Level 5: the growth inhibition rate is greater than 85%). For the same compound, the “Activity level (growth inhibition rate), Monochoria Vaginalis” value [1] was 5 (Level 5: the growth inhibition rate is greater than 85%) and the “Activity level (growth inhibition rate), Echinochloa crusgalli” value (Echinochloa crusgalli) was 5 (Level 5: the growth inhibition rate is greater than 85%).
With `C[C@@H](Oc1nc(F)c(Cl)c(N)c1Cl)C(=O)SCC(C)(C)C` [Compound 2-92] the “Activity level (growth inhibition rate), Digitaria sanguinalis” value (Digitaria sanguinalis) was 5 (Level 5: the growth inhibition rate is greater than 85%), the “Activity level (growth inhibition rate), Abutilon theophrasti Medic.” value [1] was 5 (Level 5: the growth inhibition rate is greater than 85%) and the “Activity level (growth inhibition rate), Galium aparine” value [1] was 5 (Level 5: the growth inhibition rate is greater than 85%). The “Activity level (growth inhibition rate), Monochoria Vaginalis” value [1] was 5 (Level 5: the growth inhibition rate is greater than 85%) and the “Activity level (growth inhibition rate), Echinochloa crusgalli” value (Echinochloa crusgalli) was 5 (Level 5: the growth inhibition rate is greater than 85%).
In the case of `CCCC(C)OC(=O)[C@@H](C)Oc1nc(F)c(Cl)c(N)c1Cl` (stereo partly drawn) [Compound 2-93], the “Activity level (growth inhibition rate), Digitaria sanguinalis” value (Digitaria sanguinalis) is reported as 5 (Level 5: the growth inhibition rate is greater than 85%), the “Activity level (growth inhibition rate), Abutilon theophrasti Medic.” value [1] is reported as 5 (Level 5: the growth inhibition rate is greater than 85%) and the “Activity level (growth inhibition rate), Galium aparine” value [1] is reported as 5 (Level 5: the growth inhibition rate is greater than 85%). The “Activity level (growth inhibition rate), Monochoria Vaginalis” value [1] was 5 (Level 5: the growth inhibition rate is greater than 85%) and the “Activity level (growth inhibition rate), Echinochloa crusgalli” value (Echinochloa crusgalli) was 5 (Level 5: the growth inhibition rate is greater than 85%).
With `CCCC(C)SC(=O)[C@@H](C)Oc1nc(F)c(Cl)c(N)c1Cl` (stereo partly drawn) [Compound 2-94] the “Activity level (growth inhibition rate), Digitaria sanguinalis” value (Digitaria sanguinalis) was 5 (Level 5: the growth inhibition rate is greater than 85%), the “Activity level (growth inhibition rate), Abutilon theophrasti Medic.” value [1] was 5 (Level 5: the growth inhibition rate is greater than 85%) and the “Activity level (growth inhibition rate), Galium aparine” value [1] was 5 (Level 5: the growth inhibition rate is greater than 85%). The “Activity level (growth inhibition rate), Monochoria Vaginalis” value [1] was 5 (Level 5: the growth inhibition rate is greater than 85%) and the “Activity level (growth inhibition rate), Echinochloa crusgalli” value (Echinochloa crusgalli) was 5 (Level 5: the growth inhibition rate is greater than 85%).
With `CC(C)C(C)OC(=O)[C@@H](C)Oc1nc(F)c(Cl)c(N)c1Cl` (stereo partly drawn) [Compound 2-95] the “Activity level (growth inhibition rate), Digitaria sanguinalis” value (Digitaria sanguinalis) was 5 (Level 5: the growth inhibition rate is greater than 85%), the “Activity level (growth inhibition rate), Abutilon theophrasti Medic.” value [1] was 5 (Level 5: the growth inhibition rate is greater than 85%) and the “Activity level (growth inhibition rate), Galium aparine” value [1] was 5 (Level 5: the growth inhibition rate is greater than 85%). For the same compound, the “Activity level (growth inhibition rate), Monochoria Vaginalis” value [1] was 5 (Level 5: the growth inhibition rate is greater than 85%) and the “Activity level (growth inhibition rate), Echinochloa crusgalli” value (Echinochloa crusgalli) was 5 (Level 5: the growth inhibition rate is greater than 85%).
`CC(C)C(C)SC(=O)[C@@H](C)Oc1nc(F)c(Cl)c(N)c1Cl` (stereo partly drawn) [Compound 2-96] was tested, and the “Activity level (growth inhibition rate), Digitaria sanguinalis” value (Digitaria sanguinalis) was 5 (Level 5: the growth inhibition rate is greater than 85%), the “Activity level (growth inhibition rate), Abutilon theophrasti Medic.” value [1] was 5 (Level 5: the growth inhibition rate is greater than 85%) and the “Activity level (growth inhibition rate), Galium aparine” value [1] was 5 (Level 5: the growth inhibition rate is greater than 85%). For the same compound, the “Activity level (growth inhibition rate), Monochoria Vaginalis” value [1] was 5 (Level 5: the growth inhibition rate is greater than 85%) and the “Activity level (growth inhibition rate), Echinochloa crusgalli” value (Echinochloa crusgalli) was 5 (Level 5: the growth inhibition rate is greater than 85%).
In the case of `CCC(CC)OC(=O)[C@@H](C)Oc1nc(F)c(Cl)c(N)c1Cl` [Compound 2-97], the “Activity level (growth inhibition rate), Digitaria sanguinalis” value (Digitaria sanguinalis) is reported as 5 (Level 5: the growth inhibition rate is greater than 85%), the “Activity level (growth inhibition rate), Abutilon theophrasti Medic.” value [1] is reported as 5 (Level 5: the growth inhibition rate is greater than 85%) and the “Activity level (growth inhibition rate), Galium aparine” value [1] is reported as 5 (Level 5: the growth inhibition rate is greater than 85%). For the same compound, the “Activity level (growth inhibition rate), Monochoria Vaginalis” value [1] was 5 (Level 5: the growth inhibition rate is greater than 85%) and the “Activity level (growth inhibition rate), Echinochloa crusgalli” value (Echinochloa crusgalli) was 5 (Level 5: the growth inhibition rate is greater than 85%).
`CCC(CC)SC(=O)[C@@H](C)Oc1nc(F)c(Cl)c(N)c1Cl` [Compound 2-98] was tested, and the “Activity level (growth inhibition rate), Digitaria sanguinalis” value (Digitaria sanguinalis) was 5 (Level 5: the growth inhibition rate is greater than 85%), the “Activity level (growth inhibition rate), Abutilon theophrasti Medic.” value [1] was 5 (Level 5: the growth inhibition rate is greater than 85%) and the “Activity level (growth inhibition rate), Galium aparine” value [1] was 5 (Level 5: the growth inhibition rate is greater than 85%). For the same compound, the “Activity level (growth inhibition rate), Monochoria Vaginalis” value [1] was 5 (Level 5: the growth inhibition rate is greater than 85%) and the “Activity level (growth inhibition rate), Echinochloa crusgalli” value (Echinochloa crusgalli) was 5 (Level 5: the growth inhibition rate is greater than 85%).
`CCC(C)(C)OC(=O)C(C)Oc1nc(F)c(Cl)c(N)c1Cl` (stereo not drawn) [Compound 2-99] was tested, and the “Activity level (growth inhibition rate), Digitaria sanguinalis” value (Digitaria sanguinalis) was 5 (Level 5: the growth inhibition rate is greater than 85%), the “Activity level (growth inhibition rate), Abutilon theophrasti Medic.” value [1] was 5 (Level 5: the growth inhibition rate is greater than 85%) and the “Activity level (growth inhibition rate), Galium aparine” value [1] was 5 (Level 5: the growth inhibition rate is greater than 85%). The “Activity level (growth inhibition rate), Monochoria Vaginalis” value [1] was 5 (Level 5: the growth inhibition rate is greater than 85%) and the “Activity level (growth inhibition rate), Echinochloa crusgalli” value (Echinochloa crusgalli) was 5 (Level 5: the growth inhibition rate is greater than 85%).
With `CCC(C)(C)SC(=O)C(C)Oc1nc(F)c(Cl)c(N)c1Cl` (stereo not drawn) [Compound 2-100] the “Activity level (growth inhibition rate), Digitaria sanguinalis” value (Digitaria sanguinalis) was 5 (Level 5: the growth inhibition rate is greater than 85%), the “Activity level (growth inhibition rate), Abutilon theophrasti Medic.” value [1] was 5 (Level 5: the growth inhibition rate is greater than 85%) and the “Activity level (growth inhibition rate), Galium aparine” value [1] was 5 (Level 5: the growth inhibition rate is greater than 85%). The “Activity level (growth inhibition rate), Monochoria Vaginalis” value [1] was 5 (Level 5: the growth inhibition rate is greater than 85%) and the “Activity level (growth inhibition rate), Echinochloa crusgalli” value (Echinochloa crusgalli) was 5 (Level 5: the growth inhibition rate is greater than 85%).
With `CCCCCCOC(=O)[C@@H](C)Oc1nc(F)c(Cl)c(N)c1Cl` [Compound 2-101] the “Activity level (growth inhibition rate), Digitaria sanguinalis” value (Digitaria sanguinalis) was 5 (Level 5: the growth inhibition rate is greater than 85%), the “Activity level (growth inhibition rate), Abutilon theophrasti Medic.” value [1] was 5 (Level 5: the growth inhibition rate is greater than 85%) and the “Activity level (growth inhibition rate), Galium aparine” value [1] was 5 (Level 5: the growth inhibition rate is greater than 85%). The “Activity level (growth inhibition rate), Monochoria Vaginalis” value [1] was 5 (Level 5: the growth inhibition rate is greater than 85%) and the “Activity level (growth inhibition rate), Echinochloa crusgalli” value (Echinochloa crusgalli) was 5 (Level 5: the growth inhibition rate is greater than 85%).
`CCCCCCSC(=O)[C@@H](C)Oc1nc(F)c(Cl)c(N)c1Cl` [Compound 2-102] was tested, and the “Activity level (growth inhibition rate), Digitaria sanguinalis” value (Digitaria sanguinalis) was 5 (Level 5: the growth inhibition rate is greater than 85%), the “Activity level (growth inhibition rate), Abutilon theophrasti Medic.” value [1] was 5 (Level 5: the growth inhibition rate is greater than 85%) and the “Activity level (growth inhibition rate), Galium aparine” value [1] was 5 (Level 5: the growth inhibition rate is greater than 85%). For the same compound, the “Activity level (growth inhibition rate), Monochoria Vaginalis” value [1] was 5 (Level 5: the growth inhibition rate is greater than 85%) and the “Activity level (growth inhibition rate), Echinochloa crusgalli” value (Echinochloa crusgalli) was 5 (Level 5: the growth inhibition rate is greater than 85%).
